Like-named read-outs stand apart in the source and are kept apart here.
How the values were obtained:
P-P70S6K (T389) = assay: Cell based AlphaLISA assay, inhibition of P-P70S6K (T389) (mTORC1 substrate phosphorylation) in MDA-MB-468 cells; details: Homo sapiens, 4 h, two to four hours at 37° C.
Protocol: (§1) Cell Based AlphaLISA Assays for Determining IC50 for Inhibition of P-Akt (S473), P-4E-BP1 (T37/46), and P-P70S6K (T389) in MDA-MB-468 Cells
(§2) mTOR Kinase Cellular Assay
(§3) To measure functional activity of mTORC1 and mTORC2 in cells the phosphorylation of 4EBP1 (Thr37/46) and P70S6K (Thr389), and AKT1/2/3 (Ser473) was monitored using AlphaLisa SureFire Ultra Kits (Perkin Elmer). […] Incubations were terminated by removal of the assay buffer and addition of lysis buffer provided with the assay kit. Samples were processed according to the manufacturer's instructions. The Alpha signal from the respective phosphoproteins was measured in duplicate using a microplate reader (Envision, Perkin-Elmer or Spectramax M5, Molecular Devices). Inhibitor concentration response curves were analyzed using normalized IC50 regression curve fitting with control based normalization.

P-4E-BP1 (T37/46) = assay: Cell based AlphaLISA assay, inhibition of P-4E-BP1 (T37/46) (mTORC1 substrate phosphorylation) in MDA-MB-468 cells; details: Homo sapiens, two to four hours at 37° C.
Protocol: as §1, §2, §3

P-Akt (S473) = assay: Cell based AlphaLISA assay, inhibition of P-Akt (S473) (mTORC2 substrate phosphorylation) in MDA-MB-468 cells; details: Homo sapiens, two to four hours at 37° C.
Protocol: as §1, §2, §3

[1] = AlphaLISA, read-out: pIC50 for Inhibition of mTORC1 and mTORC2 Substrate Phosphorylation, P-P70S6K-(T389) (converted)
[2] = MDA-MB-468, 4 h, AlphaLISA, read-out: pIC50 for Inhibition of mTORC1 and mTORC2 Substrate Phosphorylation, P-4E-BP1-(T37/46) (converted)
[3] = MDA-MB-468, 4 h, AlphaLISA, read-out: pIC50 for Inhibition of mTORC1 and mTORC2 Substrate Phosphorylation, p-AKT 1/2/3 -(S473) (converted)

## CO[C@H]1C[C@@H]2CC[C@@H](C)[C@@](O)(O2)C(=O)C(=O)N2CCCC[C@H]2C(=O)O[C@H]([C@H](C)C[C@@H]2CC[C@H](n3cc(-c4cccc(C(=O)NCCOCCOCCOCCC(=O)NCCOCCOCCC(=O)NCCCCn5nc(-c6ccc7oc(N)nc7c6)c6c(N)ncnc65)c4)nn3)[C@H](OC)C2)CC(=O)[C@H](C)/C=C(\C)[C@@H](O)[C@@H](OC)C(=O)[C@H](C)C[C@H](C)/C=C/C=C/C=C/1C [Example 136]
P-P70S6K (T389); [1]
  IC50: 0.001 to 0.01 µM
P-4E-BP1 (T37/46); [2]
  IC50: 0.00316 to 0.0316 µM
P-Akt (S473); [3]
  IC50: 0.0316 to 1 µM

## CO[C@H]1C[C@@H]2CC[C@@H](C)[C@@](O)(O2)C(=O)C(=O)N2CCCC[C@H]2C(=O)O[C@H]([C@H](C)C[C@@H]2CC[C@@H](O)[C@H](OC)C2)C[C@@H](OC)[C@H](C)/C=C(\C)[C@@H](O)[C@@H](OC)C(=NOCc2cn(CCOCCOCCOCCOCCNC(=O)CCCC(=O)NCCCCn3nc(-c4ccc5oc(N)nc5c4)c4c(N)ncnc43)nn2)[C@H](C)C[C@H](C)/C=C/C=C/C=C/1C [Example 104]
P-P70S6K (T389); [1]
  IC50: 0.001 to 0.01 µM
P-4E-BP1 (T37/46); [2]
  IC50: 0.0316 to 1 µM
P-Akt (S473); [3]
  IC50: 0.0316 to 1 µM

## CO[C@H]1C[C@@H]2CC[C@@H](C)[C@@](O)(O2)C(=O)C(=O)N2CCCC[C@H]2C(=O)O[C@H]([C@H](C)C[C@@H]2CC[C@@H](OCCCCc3cn(CCOCCOCCOCCOCCOCCOCCOCCOCCC(=O)NCCCCn4nc(-c5ccc6oc(N)nc6c5)c5c(N)ncnc54)nn3)[C@H](OC)C2)CC(=O)[C@H](C)/C=C(\C)[C@@H](O)[C@@H](OC)C(=O)[C@H](C)C[C@H](C)/C=C/C=C/C=C/1C [Example 1]
P-P70S6K (T389); [1]
  IC50: < 0.001 µM
P-P70S6K (T389); AlphaLisa SureFire Ultra, read-out: IC50 for Inhibition of mTORC1 and mTORC2 Substrate Phosphorylation, p-P70S6K-(T389)
  IC50: 0.0003 µM
P-4E-BP1 (T37/46); [2]
  IC50: < 0.00316 µM
P-4E-BP1 (T37/46); MDA-MB-468, 4 h, AlphaLisa SureFire Ultra, read-out: IC50 for Inhibition of mTORC1 and mTORC2 Substrate Phosphorylation, p-4E-BP1-(T37/46)
  IC50: 0.001 µM
P-Akt (S473); [3]
  IC50: < 0.00316 µM
P-Akt (S473); MDA-MB-468, 4 h, AlphaLisa SureFire Ultra, read-out: IC50 for Inhibition of mTORC1 and mTORC2 Substrate Phosphorylation, p-AKT1/2/3-(S473)
  IC50: 0.0039 µM

## CCO[C@@H]1C[C@@H]([C@H](C)C[C@@H]2CC[C@H](n3cc(COC(=O)NCCOCCOCCOCCC(=O)NCCOCCOCCC(=O)NCCCCn4nc(-c5ccc6oc(N)nc6c5)c5c(N)ncnc54)nn3)[C@H](OC)C2)OC(=O)[C@@H]2CCCCN2C(=O)C(=O)[C@]2(O)O[C@@H](CC[C@H]2C)C[C@H](OC)/C(C)=C/C=C/C=C/[C@@H](C)C[C@@H](C)C(=O)[C@H](OC)[C@H](O)/C(C)=C/[C@H]1C [Example 147]
P-P70S6K (T389); [1]
  IC50: 0.01 to 1 µM
P-4E-BP1 (T37/46); [2]
  IC50: 0.0316 to 1 µM
P-Akt (S473); [3]
  IC50: > 1 µM

## CO[C@H]1C[C@@H]2CC[C@@H](C)[C@@](O)(O2)C(=O)C(=O)N2CCCC[C@H]2C(=O)O[C@H]([C@H](C)C[C@@H]2CC[C@H](n3cc(-c4cnc(N5CCN(c6ncc(C(=O)NCCOCCOCCC(=O)NCCCCn7nc(-c8ccc9oc(N)nc9c8)c8c(N)ncnc87)cn6)CC5)nc4)nn3)[C@H](OC)C2)CC(=O)[C@H](C)/C=C(\C)[C@@H](O)[C@@H](OC)C(=O)[C@H](C)C[C@H](C)/C=C/C=C/C=C/1C [Example 111]
P-P70S6K (T389); [1]
  IC50: < 0.001 µM
P-4E-BP1 (T37/46); [2]
  IC50: 0.0316 to 1 µM
P-Akt (S473); [3]
  IC50: 0.0316 to 1 µM

## CCO[C@@H]1C[C@@H]([C@H](C)C[C@@H]2CC[C@H](n3cc(COC(=O)NCCOCCOCCOCCC(=O)NCCOCCOCCOCCC(=O)NCCCCn4nc(-c5ccc6oc(N)nc6c5)c5c(N)ncnc54)nn3)[C@H](OC)C2)OC(=O)[C@@H]2CCCCN2C(=O)C(=O)[C@]2(O)O[C@@H](CC[C@H]2C)C[C@H](OC)/C(C)=C/C=C/C=C/[C@@H](C)C[C@@H](C)C(=O)[C@H](OC)[C@H](O)/C(C)=C/[C@H]1C [Example 149]
P-P70S6K (T389); [1]
  IC50: 0.001 to 0.01 µM
P-4E-BP1 (T37/46); [2]
  IC50: 0.0316 to 1 µM
P-Akt (S473); [3]
  IC50: 0.0316 to 1 µM

## COC(=O)N[C@H]1C[C@@H]2CC[C@@H](C)[C@@](O)(O2)C(=O)C(=O)N2CCCC[C@H]2C(=O)O[C@H]([C@H](C)C[C@@H]2CC[C@@H](OCCCCc3cn(CCOCCOCCOCCOCCOCCOCCOCCOCCC(=O)NCCCCn4nc(-c5cc6cc(O)ccc6[nH]5)c5c(N)ncnc54)nn3)[C@H](OC)C2)CC(=O)[C@H](C)/C=C(\C)[C@@H](O)[C@@H](OC)C(=O)[C@H](C)C[C@H](C)/C=C/C=C/C=C/1C [Example 71]
P-P70S6K (T389); [1]
  IC50: 0.001 to 0.01 µM
P-4E-BP1 (T37/46); [2]
  IC50: 0.00316 to 0.0316 µM
P-Akt (S473); [3]
  IC50: > 1 µM

## CO[C@H]1C[C@@H]2CC[C@@H](C)[C@@](O)(O2)C(=O)C(=O)N2CCCC[C@H]2C(=O)O[C@H]([C@H](C)C[C@@H]2CC[C@@H](OCCCCc3cn(CCOCCOCCOCCOCCOCCOCCC(=O)NCCCCn4nc(-c5cnc6[nH]ccc6c5)c5c(N)ncnc54)nn3)[C@H](OC)C2)CC(=O)[C@H](C)/C=C(\C)[C@@H](O)[C@@H](OC)C(=O)[C@H](C)C[C@H](C)/C=C/C=C/C=C/1C [Example 68]
P-P70S6K (T389); [1]
  IC50: < 0.001 µM
P-4E-BP1 (T37/46); 4 h, AlphaLISA, read-out: pIC50 for Inhibition of mTORC1 and mTORC2 Substrate Phosphorylation, P-4E-BP1-(T37/46) (converted)
  IC50: 0.00316 to 0.0316 µM
P-Akt (S473); 4 h, AlphaLISA, read-out: pIC50 for Inhibition of mTORC1 and mTORC2 Substrate Phosphorylation, p-AKT 1/2/3 -(S473) (converted)
  IC50: 0.0316 to 1 µM

## CO[C@H]1C[C@@H]2CC[C@@H](C)[C@@](O)(O2)C(=O)C(=O)N2CCCC[C@H]2C(=O)O[C@H]([C@H](C)C[C@@H]2CC[C@H](n3cc(CCCC(=O)NCCOCCOCCOCCC(=O)NCCOCCOCCOCCC(=O)NCCCCn4nc(-c5cc6cc(O)ccc6[nH]5)c5c(N)ncnc54)nn3)[C@H](OC)C2)C/C(=N/OCc2ccccc2)[C@H](C)/C=C(\C)[C@@H](O)[C@@H](OC)C(=O)[C@H](C)C[C@H](C)/C=C/C=C/C=C/1C [Example 175]
P-P70S6K (T389); [1]
  IC50: > 1 µM
P-4E-BP1 (T37/46); [2]
  IC50: > 1 µM
P-Akt (S473); [3]
  IC50: > 1 µM

## CO[C@H]1C[C@@H]2CC[C@@H](C)[C@@](O)(O2)C(=O)C(=O)N2CCCC[C@H]2C(=O)O[C@H]([C@H](C)C[C@@H]2CC[C@@H](OCCCCc3cn(CCOCCOCCOCCC(=O)NCCOCCOCCOCCC(=O)NCCCCn4nc(-c5cc6cc(O)ccc6[nH]5)c5c(N)ncnc54)nn3)[C@H](OC)C2)CC(=O)[C@H](C)/C=C(\C)[C@@H](O)[C@@H](OC)C(=O)[C@H](C)C[C@H](C)/C=C/C=C/C=C/1C [Example 199]
P-P70S6K (T389); [1]
  IC50: < 0.001 µM
P-4E-BP1 (T37/46); [2]
  IC50: < 0.00316 µM
P-Akt (S473); [3]
  IC50: 0.0316 to 1 µM

## CO[C@H]1C[C@@H]2CC[C@@H](C)[C@@](O)(O2)C(=O)C(=O)N2CCCC[C@H]2C(=O)O[C@H]([C@H](C)C[C@@H]2CC[C@H](n3cc(CCCC(=O)NCCOCCOCCOCCC(=O)NCCOCCOCCOCCOCCC(=O)NCCCCn4nc(-c5ccc6oc(N)nc6c5)c5c(N)ncnc54)nn3)[C@H](OC)C2)CC(=O)[C@H](C)/C=C(\C)[C@@H](O)[C@@H](OC)C(=O)[C@H](C)C[C@H](C)/C=C/C=C/C=C/1C [Example 132]
P-P70S6K (T389); [1]
  IC50: 0.001 to 0.01 µM
P-4E-BP1 (T37/46); [2]
  IC50: 0.00316 to 0.0316 µM
P-Akt (S473); [3]
  IC50: 0.0316 to 1 µM

## CO[C@H]1C[C@@H]2CC[C@@H](C)[C@@](O)(O2)C(=O)C(=O)N2CCCC[C@H]2C(=O)O[C@H]([C@H](C)C[C@@H]2CC[C@@H](OCCC(C)(C)Cc3cn(CCOCCOCCOCCOCCOCCOCCC(=O)NCCCCn4nc(-c5ccc6oc(N)nc6c5)c5c(N)ncnc54)nn3)[C@H](OC)C2)CC(=O)[C@H](C)/C=C(\C)[C@@H](O)[C@@H](OC)C(=O)[C@H](C)C[C@H](C)/C=C/C=C/C=C/1C [Example 59]
P-P70S6K (T389); [1]
  IC50: < 0.001 µM
P-4E-BP1 (T37/46); [2]
  IC50: < 0.00316 µM
P-Akt (S473); [3]
  IC50: 0.00316 to 0.0316 µM

## CCO[C@@H]1C[C@@H]([C@H](C)C[C@@H]2CC[C@H](n3cc(COC(=O)NCCOCCOCCOCCC(=O)NCCOCCOCCOCCC(=O)NCCCCn4nc(-c5cc6cc(O)ccc6[nH]5)c5c(N)ncnc54)nn3)[C@H](OC)C2)OC(=O)[C@@H]2CCCCN2C(=O)C(=O)[C@]2(O)O[C@@H](CC[C@H]2C)C[C@H](OC)/C(C)=C/C=C/C=C/[C@@H](C)C[C@@H](C)C(=O)[C@H](OC)[C@H](O)/C(C)=C/[C@H]1C [Example 150]
P-P70S6K (T389); [1]
  IC50: 0.01 to 1 µM
P-4E-BP1 (T37/46); [2]
  IC50: 0.0316 to 1 µM
P-Akt (S473); [3]
  IC50: > 1 µM

## CO[C@@H]1C[C@H](C[C@@H](C)[C@@H]2CC(=O)[C@H](C)/C=C(\C)[C@@H](O)[C@@H](OC)C(=O)[C@H](C)C[C@H](C)/C=C/C=C/C=C(\C)[C@@H](c3ccco3)C[C@@H]3CC[C@@H](C)[C@@](O)(O3)C(=O)C(=O)N3CCCC[C@H]3C(=O)O2)CC[C@H]1OCCCCc1cn(CCOCCOCCOCCOCCOCCOCCC(=O)NCCCCn2nc(-c3ccc4oc(N)nc4c3)c3c(N)ncnc32)nn1 (stereo in doubt) [Example 19]
P-P70S6K (T389); [1]
  IC50: < 0.001 µM
